# Source: patent US10052340B2 (XIAMEN UNIVERSITY, priority 2012, dated 2018)
# Residue numbers refer to the chain shown, from its start.
# What was measured:
# [1] = tested on: other detected nuclear receptors; assay: Reporter gene analysis, COS-7 cells cotransfected with other nuclear receptors (PPARs, RORs, GR, PR, RARα, RARβ, PXR, CAR); settings: 0.5 μM, COS-7, FIG. 2
# Method: DMEM medium containing 10% fetal bovine serum is used to perform the culture of monkey kidney epithelial cell COS-7 cells, and COS-7 cells are inoculated onto a 24-well plate on the day before transfection with an inoculation density of 5×10^4 cells/well, and transfected on the next day. The transfection is the transient transfection performed using Lipofectamine 2000 (Invitrogen). In the reporter gene analysis experiment, 200 ng of a nuclear receptor full-length expression plasmid or the expression plasmid of the mutant thereof, 200 ng of endogenous promoter reporter gene, and 30 ng of Renilla luciferase expression plasmid are used for cotransfection. 500 μl Opti-MEM is added to each well and cultured for 5 h, followed by adding a ligand medicament diluted in Opti-MEM to reach the corresponding concentration, and treating for 18 h. Various nuclear receptors and the corresponding reporter gene used are as follows: human FXR, EcRE-Luc; human PPARs (α, β, and γ), PPRE-Luc; human RORs (α, β and γ), Pcp2/RORE-Luc; human GR and PR, MMTV-Luc; human RARα and RARβ, and βRE-Luc.
# A ligand can be tested for the affinity to FXR since the ligand can induce FXR to recruit coregulators after binding to FXR.
# [2] = biological target: T1, FXR A291W (Homo sapiens, UniProt Q96RI1, A305W); assay: Reporter gene analysis with FXR point mutant A291W in COS-7 cells; type: cell-based; settings: COS-7, EcRE reporter, FIG. 5
# T1 construct: the expression plasmid expressing full-length FXR (wt) or with mutations at the corresponding sites; expressed in transfected cells; host or cells: COS-7
# T1 sequence (Q96RI1 1-472 isoform Q96RI1-2 A291W): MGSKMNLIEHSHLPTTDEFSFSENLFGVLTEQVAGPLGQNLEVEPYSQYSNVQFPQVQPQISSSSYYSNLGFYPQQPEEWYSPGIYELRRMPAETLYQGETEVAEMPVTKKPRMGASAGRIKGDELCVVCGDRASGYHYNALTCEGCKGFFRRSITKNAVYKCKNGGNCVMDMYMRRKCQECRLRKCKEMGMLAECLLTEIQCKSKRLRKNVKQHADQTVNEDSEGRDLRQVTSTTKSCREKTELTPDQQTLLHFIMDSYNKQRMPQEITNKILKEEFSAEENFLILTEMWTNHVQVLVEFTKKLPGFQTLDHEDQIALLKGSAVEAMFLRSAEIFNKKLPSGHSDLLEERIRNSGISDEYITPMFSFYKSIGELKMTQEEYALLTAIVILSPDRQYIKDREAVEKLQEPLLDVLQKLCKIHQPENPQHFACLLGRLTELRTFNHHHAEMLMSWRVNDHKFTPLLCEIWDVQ
# Method: (§1) (2) The expression vector of FXR with point mutations at key binding sites is obtained. Quick-Change site-directed mutagenesis kit (Stratagene) is used for mutation, and the mutation reaction system is as follows: wild-type plasmid pCMX-FXR (50 ng) of 0.5 μl, mutation primer (100 μM) of 0.2 μl, pfu DNA polymerase (Invitrogen) (2 U) of 1 μl, 10 mM dNTPs of 1 μl, 10× PCR buffer of 5 μl, and ddH2O of 43 μl. PCR procedures are performed as follows: 94° C. for 2 min; 94° C. for 30 s, 55° C. for 1 min, 72° C. for 7 min, 15 cycles. 20 μl PCR product is digested with Dpn I […], followed by taking and transforming 2 μl digestion product into E. coli Trans 109 competent cells, ice bath for 30 min, and heat shock at 42° C. for 30 s. 250 μl of LB liquid medium without antibiotics is added, and preshaken at 225 rpm at 37° C. for 40 min, followed by taking 150 μl of products, spreading same on LB solid medium plates with ampicillin at 100 μg/ml and culturing them at 37° C. overnight. On the next day, the single colony is picked out and placed in 2 ml LB liquid medium containing ampicillin at 100 μg/ml, and cultured at 37° C. overnight. Plasmid extraction is performed on the shaken bacterial solution using Qiagen MiniPrep Plasmid Minipreparation Kit. The plasmid is identified by sequencing.
# [3] = biological target: T2, FXR H447F (Homo sapiens, UniProt Q96RI1, H461F); assay: Reporter gene analysis with FXR point mutant H447F in COS-7 cells; type: cell-based; settings: COS-7, EcRE reporter, vs wild-type FXR, FIG. 5
# T2 construct: the expression plasmid expressing full-length FXR (wt) or with mutations at the corresponding sites; expressed in transfected cells; host or cells: COS-7
# T2 sequence (Q96RI1 1-472 isoform Q96RI1-2 H447F): T1 sequence (Q96RI1 1-472 isoform Q96RI1-2 A291W) with W291A, H447F
# Method: as §1
# [4] = tested on: wild-type C57BL/6J mice; assay: Mouse trial, wild-type mice fed with high-fat diet; settings: 1.3 mg/kg i.p. daily, 14 days
# Method: Wild-type C57BL/6J mice of 9-10 weeks old, and FXR gene deletion homozygous mice (FXR^−/−) and diabetes and obesity mouse model mice (KK-Ay) with the same background are used, fed with high-fat diet (Research Diets, D12492), with free access to water, in SPF grade animal room in experimental animal center, Xiamen University. […] Intraperitoneal injection is performed one time at 9 o'clock every morning, continued for 14 days, and the mice are measured for body weight and the food intake every two days. At the end of 14 days, the mice are provided with free access to water, and after being hungry for 6 h, the mouse body weights are measured, and the percentage of the final body weight relative to the initial body weight before the treatment of the injection trial indicates the change of mouse body weight. Then blood is sampled from the eye balls, and sera are obtained by separation. The components in serum are detected by the following kits respectively: sugar-oxidase method (Beijing Applygen); insulin (Crystal Chem. Inc., USA); total cholesterol and cholesterol in high and low density lipoprotein (Bioassay Systems, USA); triglyceride (Beijing Applygen and WAKO Chemicals Inc., Japan); free fatty acids (Bioassay Systems, USA); and aspartate aminotransferase and alanine aminotransferase (Biosino Bio-technology and Science Inc., Beijing, China). Mouse liver is taken, a part of which is fixed with paraformaldehyde, and embedded with paraffin, sectioned, and stained with hematoxylin and eosin, and a part of which is cryopreserved with liquid nitrogen for use in extracting RNA for measuring gene expression with fluorescence quantitative PCR.
structure (smiles),measurement,setting,value
CC[C@H](C)[C@H]1O[C@]2(CC[C@@H]1C)C[C@@H]1C[C@@H](C/C=C(\C)C(O[C@H]3C[C@H](OC)C(O[C@H]4C[C@H](OC)[C@@H](O)[C@H](C)O4)[C@H](C)O3)[C@@H](C)/C=C/C=C3\CO[C@@H]4[C@H](O)C(C)=CC(C(=O)O1)[C@]34O)O2 (stereo partly drawn) [ivermectin],transcriptional activity of the other detected nuclear receptors,[1],does not produce any effect
same,transcriptional activity of FXR mutant A291W,[2],incapable of activating the transcriptional activity of FXR
same,transcriptional activity of FXR mutant H447F,[3],significantly increasing
same,activity of serum alanine aminotransferase,[4]; FIG. 11,does not affect the transaminase activity
same,activity of serum aspartate aminotransferase,[4]; FIG. 11,does not affect the transaminase activity
same,"liver injury, liver section stained with hematoxylin and eosin",[4]; FIG. 12,produces no injury to liver cells
same,cholesterol level in high density lipoprotein,[4]; high-fat diet,significantly downregulated
same,cholesterol levels in low density and very low density lipoprotein,[4]; high-fat diet,downregulated
same,serum cholesterol level,[4]; high-fat diet,significantly decreases
same,serum glucose level,[4]; high-fat diet,significantly decreases
same,serum insulin level,[4]; high-fat diet,significantly decreases
same,serum triglyceride (Tg) level,[4]; high-fat diet,significantly decrease
